From patent US20060229358A1, “Pharmaceutical composition containing flavonoids” (Taipei Medical University, priority 2005, published 2006) come the findings set out here.

Assay [1] has as its system PDE4. Briefly: Inhibition of cyclic nucleotide PDE activity (Assay I), PDE4, incl. Lineweaver-Burk analysis. It is filed as biochemical, guinea pig. The following applies: from the IC50s of Table 2. Here is the method:
Under a protocol approved by the Animal Care and Use Committee of Taipei Medical University, five male guinea pigs (Hartley), weighing 500-600 g, were sacrificed. The lungs (15 g) or hearts (4 g) taken therefrom were chopped into small pieces and homogenized with a glass/teflon homogenizer (Glas-Col, Terre Haute, Ind., USA) in 10 volumes of cold medium (pH 6.5) containing 20 mM Bis-Tris, 2 mM benzamidine, 2 mM EDTA, 50 mM sodium chloride, 0.1 mM phenylmethanesulfonyl fluoride (PMSF), and 1 mM dithiothreitol. At 4° C., the homogenate was centrifuged at 170 g for 15 min, and the supernatant thereof was then re-centrifuged at 40,000 g for 30 min. […] The column was washed with two bed volumes of homogenate buffer to remove unbound material, where the resin beads therein will bind with proteins, such as PDE proteins. Proteins bound to the Q-sepharose beads were eluted with various concentrations (0.23, 0.34, 0.44, 0.69, and 1.00 M) of NaCl dissolved in homogenate buffer (for each concentration, 40-50 mL elution buffer were applied) at a flow rate of 30 ml/h. Fractions (3 ml each) were collected, and ethylene glycol (EG) was added thereto until a final concentration of 30% (v/v). And then the samples were frozen at −70° C.
The activities of PDE1-5 in the homogenate were measured with a two-step procedure according to the method of Thompson and Appleman, using cAMP with [^3H]-cAMP or cGMP with [^3 H]-cGMP as substrates. The PDE enzyme prepared (25 μl) with 10 μl inhibitor or the solvents therefor was incubated for 30 min at 37° C. in a total assay buffer, where the final volume of the assay is amounted to 100 μl. In accordance with the features of the PDE isozymes, the assay buffer contains 50 mM Tris/HCl (pH 7.4), 3 mM MgCl2, 1 mM dithiothreitol, and 0.05% BSA, and optionally contains 1 uM cAMP with 0.2 μCi [^3H]-cAMP as a substrate alone or in the presence of 0.1 unit calmodulin with 10 μM CaCl2, or 5 μM cGMP, and 1 μM cGMP with 0.2 μCi [^3H]-cGMP as another substrate alone or in the presence of 0.1 unit calmodulin with 10 μM CaCl2.
The PDE enzyme and the inhibitors (or their solvent) therefor were mixed and incubated on ice for 30 min previously, and then mixed with the assay buffer. The assay was initiated by transferring the mixture to a water bath at 37° C. Following the other 30 min incubation, the reaction was stopped by transferring the reaction vessel to a bath of boiling water for 3 min. After cooling on ice, 20 μl of the 1 mg/ml of Crotalus atrox venom was added to the reaction mixture, and the mixture was incubated at 37° C. for 10 min. The uncatalyzed substrates, such as cAMP, [^3H]-cAMP, cGMP, or [^3H]-cGMP were removed by the addition of 500 μl of a 1-in-1 Tris-HCl (40 mM) buffer suspension of Dowex resin (1×8-200) with incubation on ice for 30 min, since the bindings of the cyclic nucleotides and the resin. Each tube was then centrifuged for 2 min at 6000 rpm, and 100 μl of the supernatant was removed and counted by a β-counter for calculating the enzyme (PDEs) activity.
The dissociation constant of inhibitor binding (Ki) value was determined from the equation of apparent Km as a function of the inhibitor concentration (insert in A and B, respectively). The slope of the equation is equal to the value of […] (where KM is Michaelis constant). The amounts of the total proteins are calculated based on the analytical method reported by Bradford. In FIGS. 1A and 1B, all enzyme activities are shown as nmole of substrate per mg of proteins per minute (nmole/mg/min) hydrolyzed.
The IC50 values of flavonoids and various reference drugs were calculated using non-linear regression analysis by the software SigmaPlot 7.0 (Sigma Chemical, St. Louis Mo., USA).

For assay [2], the system named is high affinity rolipram binding sites (HARBS, PDE4H). Description: Binding to particulate HARBS of whole brain, displacement of [3H]-rolipram (Assay II). More on the design: species or system guinea pig. To be noted: HARBS 50% binding concentration over PDE4 IC50. In general terms: Loss of bound radioactivity is the signal in a displacement assay; it reports binding, not function.

For `COc1cc(O)c2c(=O)c(-c3ccc(O)cc3)coc2c1` [Prunetin], in assay [1], the “selectivity among PDE1-5” value is listed as “more-selective inhibition on PDE4”. In addition, the PDE4H/PDE4L ratio result in assay [2] was “greater than 5”.
